According to patent publication US12594339B2, “Lipid prodrugs of JAK inhibitors and uses thereof” (Seaport Therapeutics, Inc., priority 2019, dated 2026):

Experiments:
[1] = Lymphatic transport assay in mesenteric lymph-duct cannulated rats; type: in vivo, rat; conditions: total tofacitinib related compound (lymph hydrolysed before assay), intraduodenal infusion, anaesthetised mesenteric lymph-duct cannulated rats, lymph collected up to 8 h
Procedure: In order to assess the lymphatic transport of disclosed lipid prodrugs in rats, the mesenteric lymph ducts of the rats used in this study were cannulated to allow continual collection of mesenteric lymph. Lipid formulations containing the compound of interest were then administered to the animals, lymph was collected, and drug concentrations in the lymph samples were quantified.
Lipid-based formulations of the compounds of the invention or control compounds were prepared as previously described (Trevaskis, N. L. et al., Pharmaceutical Research, 2005, 22(11), 1863-1870, WO 2016/023082, and WO 2017/041139, hereby incorporated by reference).
In brief, either 1 or 2 mg of test prodrug, 40 mg oleic acid and 25 mg Tween 80 were mixed in a glass vial and incubated at 37° C. for 12-18 h to equilibrate. An aqueous phase consisting of 5.6 ml phosphate buffered saline (PBS, pH 7.4) was subsequently added to the lipid phase (tofacitinib was dissolved in PBS for the preparation of tofacitinib-containing formulations) and the formulation emulsified by ultrasonication with a Misonix XL 2020 ultrasonic processor (Misonix, Farmingdale, NY, USA) equipped with a 3.2-mm microprobe tip running at 30% of the maximal amplitude of 240 μm and a frequency of 20 kHz for 2 min at room temperature. Doses for administering to more than one animal can be prepared in one batch by suitably increasing the quantities given above. Drug/prodrug concentrations in all formulations were verified using HPLC-MS.
Male Sprague-Dawley (SD) rats were selected for the lymphatic transport studies. Rats (typically 240-320 g) were maintained on a standard diet and fasted overnight with free access to water prior to experiments.
Anesthetized rats were placed on a heated pad at 37° C. and cannulas inserted into the duodenum (for formulation administration and rehydration), mesenteric lymph duct (for lymph collection), and carotid artery (in cases where blood collection was conducted). Post-surgery, rats were re-hydrated for 0.5 h via intraduodenal infusion of normal saline at 2.8 mL/h. The lipid formulations were infused into the duodenum at 2.8 mL/h for 2 h after which, normal saline was infused at 2.8 mL/h for the remainder of the experiment. Lymph was continuously collected for up to 8 h into pre-weighed Eppendorf tubes containing 10 μL of 1,000 IU/mL heparin. The collection tubes were changed hourly and lymph flow was measured gravimetrically. Aliquots of hourly lymph samples were stored at −20° C. prior to assay.
For most compounds, drug concentration in lymph is expressed as total drug and includes free drug and drug associated with different glycerides. Lymph samples were first treated with a lipase or other appropriate conditions to liberate free active agent prior to measurement of active agent levels in the lymph. Treatment with a lipase or other hydrolysis conditions liberates free active agent from any corresponding re-esterified glycerides. Porcine pancreatic lipase is appropriate for this purpose. Alternatively, hydrolysis with 0.5 M NaOH may be used.
For certain compounds, drug concentration was measured for the intact lipid prodrug specifically, without exposing the lymph samples to hydrolysis conditions.
Transport of compounds into lymph during each hourly collection period was calculated from the product of the volume of lymph collected and the measured concentrations in lymph. For fluorescent or fluorescently-labelled compounds, the concentrations of total compound may be measured by fluorescence spectroscopy without hydrolysis.
Table 5 summarizes lymphatic transport of total tofacitinib related compound (% of administered dose) following intraduodenal infusion to anaesthetised, mesenteric lymph-duct cannulated rats. Data are presented as mean±SD when n≥3 or mean± range when n=2. […]

[2] = biological target: T1, porcine pancreatic lipase (Sus scrofa, UniProt P00591); experiment: In vitro hydrolysis by porcine pancreatic lipase in simulated intestinal micellar solution; type: in vitro ADME; conditions: for In vitro hydrolysis: acid intermediates: HPLC-MS; for In vitro hydrolysis: conversion to monoglyceride form / In vitro hydrolysis: fate of the monoglyceride: simulated intestinal micellar solution, 37° C., 0-180 min
T1 construct: dispersion of 1 g porcine pancreatin in 5 ml of lipolysis buffer; from tissue; host or cells: porcine pancreatin (pancreas extract), supernatant after centrifugation
T1 sequence (P00591 1-450): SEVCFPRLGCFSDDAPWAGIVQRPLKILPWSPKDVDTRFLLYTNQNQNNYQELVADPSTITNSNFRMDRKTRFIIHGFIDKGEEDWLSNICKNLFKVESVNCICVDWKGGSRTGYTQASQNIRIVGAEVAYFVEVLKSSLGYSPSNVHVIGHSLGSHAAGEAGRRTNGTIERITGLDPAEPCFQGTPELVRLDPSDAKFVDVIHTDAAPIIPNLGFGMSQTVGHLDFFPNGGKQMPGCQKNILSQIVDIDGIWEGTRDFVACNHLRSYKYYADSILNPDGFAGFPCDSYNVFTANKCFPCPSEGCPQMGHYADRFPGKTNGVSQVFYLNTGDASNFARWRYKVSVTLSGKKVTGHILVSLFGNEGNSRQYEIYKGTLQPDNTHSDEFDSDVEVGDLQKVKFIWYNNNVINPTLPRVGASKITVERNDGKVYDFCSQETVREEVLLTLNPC
T1 sequence (P02703 23-112 partner): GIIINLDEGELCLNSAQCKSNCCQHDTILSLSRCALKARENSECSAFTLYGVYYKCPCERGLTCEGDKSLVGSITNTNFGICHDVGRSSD
Procedure: Hydrolysis of test compounds in vitro was performed via incubation with porcine pancreatic lipase. This provides a more reproducible source of pancreatic enzymes, facilitates enhanced experimental throughput, and is also a greater challenge than collected rat enzymes (as described below, since enzyme activity in rat intestinal fluid is low). Briefly, pancreatic lipase solution was prepared prior to the hydrolysis experiment by dispersion of 1 g porcine pancreatin in 5 ml of lipolysis buffer and 16.9 μL of 0.5 M NaOH. The suspension was mixed well and centrifuged at 3500 rpm for 15 minutes at 5° C. to provide a supernatant. An amount of 1000 mL of lipolysis buffer was prepared with 0.474 g of tris-maleate (2 mM), 0.206 g of CaCl2·H2O (1.4 mM) and 8.775 g of NaCl (150 mM) adjusted with NaOH to pH 6.5. To assess the potential for prodrug hydrolysis in the intestine, 20 μL of prodrug solution (1 mg/mL dissolved in acetonitrile), 900 μL of simulated intestinal micellar solution [prepared with 0.783 g of NaTDC (3 mM) and 0.291 g of phosphatidyl choline (0.75 mM) in 500 mL lipolysis buffer] and 100 μL of enzyme solution were incubated at 37° C. 20 μL samples of the incubation solution were taken at 0, 5, 10, 15, 30, 60, 90, 120 and 180 minutes post incubation and added to 180 μL of MeCN to stop lipolysis. The mixture was vortexed and centrifuged at 5000 rpm for 5 minutes to precipitate proteins prior to analysis. The supernatant was analyzed by HPLC-MS for residual compound concentrations, and the potential products of compound hydrolysis analyzed.
On incubation with digestive enzymes, the monoglyceride forms of the prodrugs are formed very rapidly. The stability in simulated intestinal conditions is therefore better assessed by the stability of the monoglyceride form that is generated by the initial digestion process. The monoglyceride form should remain intact to be absorbed and re-esterified in the enterocyte prior to entry into the lymphatics. A comparison of the stability profiles of the monoglyceride forms of test compounds during in vitro incubation with porcine pancreatic lipase (or freshly collected rat bile and pancreatic fluid (BPF), as described below) was used to evaluate the influence of linker structure on the stability of the monoglyceride intermediates.

[3] = system: plasma supplemented with lipoprotein lipase (LPL); experiment: In vitro release of therapeutic agent from prodrugs in plasma supplemented with lipoprotein lipase; type: in vitro ADME; conditions: rat and/or human plasma supplemented with LPL; for In vitro hydrolysis profile: conversion to monoglyceride form / In vitro hydrolysis profile: further conversion products: 37° C., 0-180 min
Procedure: In order to probe the release of free drug from TG prodrugs in the systemic circulation, prodrugs are incubated with plasma (rat, mouse, dog, pig or human) supplemented with lipoprotein lipase (LPL, 200 IU/ml). LPL is a key enzyme required for the hydrolysis of lipoprotein associated TG in the systemic circulation and is therefore expected to be a key contributor to lipolysis of the re-esterified drug-TG construct in plasma, largely via liberation of fatty acids in the sn-1 and the sn-3 position of the TG-mimetic, prior to drug release from the 2′ position via esterase hydrolysis. […] is tethered to the luminal surface of vascular endothelial cells under physiological conditions. In the current in vitro studies, plasma is therefore supplemented with LPL to better reflect the in vivo situation.
To start hydrolysis, 10 μl of LPL solution (10,000 IU/ml) was added to a mixture of 10 μl of prodrug solution (1 mg/ml dissolved in acetonitrile) and 500 μl of blank plasma. The mixture was incubated at 37° C. Samples (20 μl) of the incubation solution were taken at 0, 5, 15, 30, 60, 90, 120 and 180 minutes post-incubation and added to 180 μl of MeCN to stop lipolysis. The mixture was vortexed and centrifuged at 4500×g for 5 minutes to precipitate proteins prior to analysis. The supernatant was analyzed by HPLC-MS/MS for the potential products (MG form, acid form, and free drug) of prodrug hydrolysis.
The in vitro hydrolysis profile of selected prodrug compounds was determined in rat and/or human plasma supplemented with LPL. […] The acid intermediate was not observed for prodrug I-5. The acid intermediates are believed to have the structures shown in Table 6, below, based on HPLC-MS data.

Row | In vitro hydrolysis: acid intermediates [2] | In vitro hydrolysis profile: acid intermediate ([3]; HPLC-MS) | Structure (SMILES) | Cumulative lymphatic transport % dose [1] | In vitro hydrolysis: conversion to monoglyceride form [2] | In vitro hydrolysis: fate of the monoglyceride [2] | In vitro hydrolysis profile: conversion to monoglyceride form [3] | In vitro hydrolysis profile: further conversion products [3]
1 | not observed | not observed | CCCCCCCCCCCCCCCC(=O)OCC(COC(=O)CCCCCCCCCCCCCCC)OC(=O)CC(C)CC(=O)OC(C)n1ccc2c(N(C)[C@H]3CN(C(=O)CC#N)CC[C@H]3C)ncnc21 (stereo partly drawn) [I-5, 1-(1,3-bis(palmitoyloxy)propan-2-yl) 5-(1-(4-(((3R,4R)-1-(2-cyanoacetyl)-4-methylpiperidin-3-yl)(methyl)amino)-7H-pyrrolo[2,3-d]pyrimidin-7-yl)ethyl) 3-methylpentanedioate] | D (lymphatic transport assay result of less than 0.05% (<0.05%)) | rapidly converted to the prodrug's monoglyceride form | converted to free parent tofacitinib over time | rapidly converted into their monoglyceride form | further conversion to tofacitinib and an acid intermediate
2 | not observed |  | CCCCCCCCCCCCCCCC(=O)OCC(COC(=O)CCCCCCCCCCCCCCC)OC(=O)CC(C)CCCCCCCC(C)C(=O)n1ccc2c(N(C)[C@H]3CN(C(=O)CC#N)CC[C@H]3C)ncnc21 (stereo partly drawn) [I-6, 2-((12-(4-(((3R,4R)-1-(2-cyanoacetyl)-4-methylpiperidin-3-yl)(methyl)amino)-7H-pyrrolo[2,3-d]pyrimidin-7-yl)-3,11-dimethyl-12-oxododecanoyl)oxy)propane-1,3-diyl dipalmitate] | B (lymphatic transport assay result between 1% and 10% (1%-10%)) | rapidly converted to the prodrug's monoglyceride form | converted to free parent tofacitinib over time | rapidly converted into their monoglyceride form | further conversion to tofacitinib and an acid intermediate
